The subject of assay [1] is D427N PKCβII catalytic domain. Description: ADP-Glo in vitro kinase assay with ATP-competitive inhibitors, D427N compared with WT. Format: biochemical. The following applies: 50 μM ATP, 200 μM PSS peptide; IC50 of D427N higher than WT. On the procedure: Given the proximity of the mutation to the nucleotide pocket of the kinase, we compared the potency of three ATP-competitive inhibitors in WT and D427N PKCβII to assess if existing PKC inhibitors could be used to target the mutant. We assayed WT and D427N PKCβII catalytic domains at 50 μM ATP with one indolocarbazole inhibitor (UCN-01) and two bisindolylmaleimide inhibitors (BIM-1 and the PKCβ-specific inhibitor ruboxistaurin) (Figure 5A–C). […] These differences were 17-fold for ruboxistaurin, 9-fold for BIM-1 and 25-fold for UCN-01.
Figure 5 Pharmacology of D427N PKCβII. A–C – Representative dose-response curves when WT and D427N PKCβII catalytic domains were assayed with the indicated inhibitors, 50 μM ATP and 200 μM PSS peptide. ADP produced in the assays was measured by luminescence and converted to specific activity using an ADP standard curve. Error bars indicate the mean ± SD from three technical replicates. D – IC50 values obtained from fitting curves in (A-C). Error bars indicate the mean ± SD from three independent dose-response assays (*=P<0.05, **=P<0.01 versus WT by t-test with Holm–Šídák correction for multiple comparisons). E,F – Orthogonal views of Ruboxistaurin (pink) in the PKCβII nucleotide-binding pocket (cyan). A σA-weighted |2Fo-Fc| map is shown contoured at 1.5 σ. The location of the N427 side chain is indicated. Figure was generated using UCSF ChimeraX.
Kinase assays were carried out in white, 384-well OptiPlates (PerkinElmer) using an ADP-Glo kit (Promega) on a scale of […] for the kinase reaction. Kinase was diluted in assay buffer (40 mM Tris-HCl pH 7.5, 20 mM MgCl2, 0.1 mg/ml BSA (NEB, #B9000S), 1 mM DTT) and added to the plate (typically 0.5–1 ng/well). The assay was started by adding the substrates at a final concentration of 50–300 μM [ATP and either histone type III-S (Sigma, #H5505), MBP (Sigma, #M1891), or a peptide]. […] Luminescence was recorded using an EnSight MultiMode Plate Reader (PerkinElmer), and the slope of a standard curve was used to convert luminescence values to specific activity in nmol ADP/min/mg.

Assay [2] has as its target D427N PKCβII catalytic domain. Description: Fluorescence polarisation binding of fluorescein-PSS peptide, D427N. The following applies: catalytic domains. The procedure:
Figure 3 D427N PKCβII has an altered substrate repertoire in vitro . A–D – Representative titration curves from assays of WT or D427N PKCβII catalytic domains with excess ATP and titrations of either histone type III-S, MBP, PSS peptide or BTK S180 peptide. Specific activity in nmol/min/mg was calculated using an ADP standard curve. Error bars indicate the mean ± SD from three technical replicates. E and F – Km and Vmax values of WT and D427N PKCβII catalytic domains for each substrate, obtained from Michaelis–Menten fits of titration curves in (A-D). Error bars indicate the mean ± SD from three independent assays (*=P<0.05, **=P<0.01 versus WT by t-test with Holm–Šídák correction for multiple comparisons). G – Representative binding curves of anisotropy vs protein concentration when WT or D427N PKCβII catalytic domains were titrated into fluorescein–PSS peptide; KD values are shown ± the error of the fit. […] H – Differential heat map of WT and D427N PKCβII activity towards a PamChip microarray, calculated from log2 fold change values relative to a no ATP control array. […] The measured ligand is the PSS peptide, and WT and D427N are protein variants.
Fluorescence polarisation (FP) experiments were performed using an FP-8500 spectrofluorometer (Jasco). […] Equilibrium dissociation constants were determined by plotting anisotropy as a function of PKCβII catalytic domain concentration. […]

Molecules are shown by their SMILES.

Turning to `CN(C)C[C@@H]1CCn2cc(c3ccccc32)C2=C(C(=O)NC2=O)c2cn(c3ccccc23)CCO1` [ruboxistaurin], the “difference in IC50, D427N PKCβII catalytic domain versus WT” value in assay [1] stood at 17 fold.
On the same count and under the same terms, under `CNC1CC2OC(C)(C1OC)n1c3ccccc3c3c4c(c5c6ccccc6n2c5c31)C(=O)NC4O` (stereo not shown) [UCN-01] stands 25 fold.
On to `CC(C)C[C@H](NC(=O)[C@H](CO)NC(=O)CNC(=O)[C@H](CCCCN)NC(=O)[C@H](CCCNC(=N)N)NC(=O)[C@H](C)NC(=O)[C@H](Cc1ccccc1)NC(=O)[C@H](CCCNC(=N)N)NC(=O)[C@@H](NC(=O)[C@@H](NC(=O)[C@H](CO)NC(=O)[C@H](CCC(=O)O)NC(=O)c1ccc2c(c1)C(=O)OC21c2ccc(O)cc2Oc2cc(O)ccc21)[C@@H](C)O)C(C)C)C(=O)N[C@@H](CCCNC(=N)N)C(=O)N[C@@H](CCC(N)=O)C(=O)N[C@@H](CCCCN)C(=O)N[C@@H](CC(N)=O)C(=O)N[C@H](C(=O)N[C@@H](Cc1c[nH]cn1)C(N)=O)C(C)C`, for which the “binding affinity of D427N PKCβII relative to WT (from KD values)” value in assay [2] is on record as “two-fold weaker affinity than WT”.
As for `CN(C)CCCn1cc(C2=C(c3c[nH]c4ccccc34)C(=O)NC2=O)c2ccccc21` [BIM-1], the “difference in IC50, D427N PKCβII catalytic domain versus WT” value in assay [1] was 9 fold.

The values above are taken from PMC12687424, “Penetrant PKCβ mutation in ATLL displays a mixed gain-of-function” (Biochemical Journal, 2025).
